In patent publication US10301280B2 (Plexxikon Inc., priority 2012, dated 2019):

Test system: BaF3-FL KIT D816V or BaF3-FL KIT V560G/D816V cell line
Assay: Cell-based assays of c-Kit mutant kinase activity (cell growth, ATPlite)
Conditions: at least one of the c-kit cell assays of Example 26
Method: The c-Kit mutant D816V inhibitors were assessed using an engineered BaF3-FL KIT D816V or BaF3-FL KIT V560G/D816V cell line. The BaF3-FL KIT D816V cell lines were created by introduction of KIT mutant (D816V) full length constructs that render the cells dependent on the introduced kinase for growth. Inhibitors of c-Kit mutant D816V kinase reduce or eliminate the mediated c-kit mutant D816V kinase activation, resulting in reduced cell proliferation of the BaF3-FL Kit mutant D816V cells. This inhibition is measured by the effect of compound concentration on cell growth to assess IC50 values. BaF3-FL KIT D816V cells were seeded at 1×10^4 cells per well of a 96 well cell culture plate in 50 μl of cell culture medium of RPMI Medium 1X (Invitrogen #11875-093) supplemented with 10% FBS (Invitrogen #10438), 1% Non Essential Amino Acids(Invitrogen #11140), 1% Penicillin Streptomycin (Invitrogen #15140), 1% L-Glutamine (Invitrogen #25030-081). Compounds were dissolved in DMSO at a concentration of 5 mM and were serially diluted 1:3 for a total of eight points and added to the cells to a final maximum concentration of 10 μM in 100 μl cell culture medium (final concentration 0.2% DMSO). Cells were also treated with Dasatinib as a positive control. The cells were incubated at 37° C., 5% CO2 for three days. ATPlite Buffer (Perkin Elmer #6016739) and substrate were equilibrated to room temperature, and enzyme/substrate Recombinant Firefly Luciferase/D-Luciferin was reconstituted. The cell plates were equilibrated to room temperature for 30 minutes, then lysed by addition of 25 uL per well of the ATPlite Reagent. The plate was mixed for 5 minutes on a plate shaker to lyse the cells. The plates were read on a Tecan Safire using Luminescence protocol modified to read 0.1 s per well. The luminescence reading assesses the ATP content, which correlates directly with cell number such that the reading as a function of compound concentration is used to determine the IC50 value.
Plasmids P75635 and P75565 were engineered for mammalian cell expression. In both plasmids, full-length human v-kit Hardy-Zuckerman 4 feline sarcoma viral oncogene homolog gene (NCBI accession NM_000222, KIT, residues M1-V976) was subcloned into the pCI-Neo vector (Promega E1841). Plasmid P75635 contains the mutation of residue Aspartic acid 816 to Valine. Plasmid P75565 contains the double mutation of residues Valine 560 to Glycine and Aspartic acid 816 to Valine. The pCI-neo Mammalian Expression Vector carries the human cytomegalovirus (CMV) immediate-early enhancer/promoter region to promote constitutive expression of KIT and contains the neomycin phosphotransferase gene, a selectable marker.
It is understood that the results of these assays may vary as assay conditions are varied. Inhibition levels determined under the conditions described herein represent a relative activity for the compounds tested under the specific conditions employed. The cell based assays are likely to show variability due to the complexity of the system and the sensitivity thereof to any changes in the assay conditions. […] In some instances, the compounds were not tested in all of the assays, or assay results were not valid.

SMILES	IC50
O=C(Nc1cnc2[nH]c(-c3ccc(F)cc3)cc2c1)c1cc(C(F)(F)F)n[nH]1 [P-2156, N-[2-(4-fluorophenyl)-1H-pyrrolo[2,3-b]pyridin-5-yl]-3-(trifluoromethyl)-1H-pyrazole-5-carboxamide]	< 10 µM
COc1nc(C)ccc1-c1cc2cc(NC(=O)c3[nH]nc(C)c3C)cnc2[nH]1 [P-2170, N-[2-(2-methoxy-6-methyl-3-pyridyl)-1H-pyrrolo[2,3-b]pyridin-5-yl]-3,4-dimethyl-1H-pyrazole-5-carboxamide]	< 10 µM
COc1nccc(-c2cc3cc(NC(=O)c4[nH]nc(C)c4C)cnc3[nH]2)c1Cl [P-2171, N-[2-(3-chloro-2-methoxy-4-pyridyl)-1H-pyrrolo[2,3-b]pyridin-5-yl]-3,4-dimethyl-1H-pyrazole-5-carboxamide]	< 10 µM
CCc1n[nH]c(C(=O)Nc2cnc3[nH]c(-c4ccc(F)cc4)cc3c2)c1Cl [P-2173, 4-chloro-3-ethyl-N-[2-(4-fluorophenyl)-1H-pyrrolo[2,3-b]pyridin-55-yl]-1H-pyrazole-5-carboxamide]	< 10 µM
Cc1[nH]nc(C(=O)Nc2cnc3[nH]cc(-c4cccc(N5CCNCC5)n4)c3c2)c1C [P-2190, 4,5-dimethyl-N-(3-(6-(piperazin-1-yl)pyridin-2-yl)-1H-pyrrolo[2,3-b]pyridin-5-yl)-1H-pyrazole-3-carboxamide]	< 10 µM
Cc1[nH]nc(C(=O)Nc2cnc3[nH]cc(-c4cccc(N5CCOCC5)n4)c3c2)c1C [P-2192, 4,5-dimethyl-N-(3-(6-morpholinopyridin-2-yl)-1H-pyrrolo[2,3-b]pyridin-5-yl)-1H-pyrazole-3-carboxamide]	< 10 µM
Cc1[nH]nc(C(=O)Nc2cnc3[nH]cc(-c4ccnc(N5CCOCC5)c4)c3c2)c1C [P-2193, 4,5-dimethyl-N-(3-(2-morpholinopyridin-4-yl)-1H-pyrrolo[2,3-b]pyridin-5-yl)-1H-pyrazole-3-carboxamide]	< 10 µM
CC(=O)N1CC(n2cc(-c3cc4cc(NC(=O)c5n[nH]c(C)c5C)cnc4[nH]3)c(C)n2)C1 [P-2194, N-(2-(1-(1-acetylazetidin-3-yl)-3-methyl-1H-pyrazol-4-yl)-1H-pyrrolo[2,3-b]pyridin-5-yl)-4,5-dimethyl-1H-pyrazole-3-carboxamide]	< 10 µM
Cc1nn(C2CNC2)cc1-c1cc2cc(NC(=O)c3n[nH]c(C)c3C)cnc2[nH]1 [P-2195, N-(2-(1-(azetidin-3-yl)-3-methyl-1H-pyrazol-4-yl)-1H-pyrrolo[2,3-b]pyridin-5-yl)-4,5-dimethyl-1H-pyrazole-3-carboxamide]	< 10 µM
Cc1[nH]nc(C(=O)Nc2cnc3[nH]c(-c4cnn(C5COC5)c4C)cc3c2)c1C [P-2196, 4,5-dimethyl-N-(2-(5-methyl-1-(oxetan-3-yl)-1H-pyrazol-4-yl)-1H-pyrrolo[2,3-b]pyridin-5-yl)-1H-pyrazole-3-carboxamide]	< 10 µM
Cc1[nH]nc(C(=O)Nc2cnc3[nH]c(-c4cnn(C5CNC5)c4C)cc3c2)c1C [P-2197, N-(2-(1-(azetidin-3-yl)-5-methyl-1H-pyrazol-4-yl)-1H-pyrrolo[2,3-b]pyridin-5-yl)-4,5-dimethyl-1H-pyrazole-3-carboxamide]	< 10 µM
Cc1[nH]nc(C(=O)Nc2cnc3[nH]c(-c4cnn(C5CCNCC5)c4C)cc3c2)c1C [P-2198, 4,5-dimethyl-N-(2-(5-methyl-1-(piperidin-4-yl)-1H-pyrazol-4-yl)-1H-pyrrolo[2,3-b]pyridin-5-yl)-1H-pyrazole-3-carboxamide]	< 10 µM
CC(=O)N1CCC(n2ncc(-c3cc4cc(NC(=O)c5n[nH]c(C)c5C)cnc4[nH]3)c2C)CC1 [P-2199, N-(2-(1-(1-acetylpiperidin-4-yl)-5-methyl-1H-pyrazol-4-yl)-1H-pyrrolo[2,3-b]pyridin-5-yl)-4,5-dimethyl-1H-pyrazole-3-carboxamide]	< 10 µM
Cc1[nH]nc(C(=O)Nc2cnc3[nH]c(-c4cnn(C5CCN(C(=O)C6CC6)CC5)c4C)cc3c2)c1C [P-2200, N-(2-(1-(1-(cyclopropanecarbonyl)piperidin-4-yl)-5-methyl-1H-pyrazol-4-yl)-1H-pyrrolo[2,3-b]pyridin-5-yl)-4,5-dimethyl-1H-pyrazole-3-carboxamide]	< 10 µM
Cc1nn(C2CCNCC2)cc1-c1cc2cc(NC(=O)c3n[nH]c(C)c3C)cnc2[nH]1 [P-2201, 4,5-dimethyl-N-(2-(3-methyl-1-(piperidin-4-yl)-1H-pyrazol-4-yl)-1H-pyrrolo[2,3-b]pyridin-5-yl)-1H-pyrazole-3-carboxamide]	< 10 µM
CC(=O)N1CCC(n2cc(-c3cc4cc(NC(=O)c5n[nH]c(C)c5C)cnc4[nH]3)c(C)n2)CC1 [P-2202, N-(2-(1-(1-acetylpiperidin-4-yl)-3-methyl-1H-pyrazol-4-yl)-1H-pyrrolo[2,3-b]pyridin-5-yl)-4,5-dimethyl-1H-pyrazole-3-carboxamide]	< 10 µM
Cc1nn(C2CCN(C(=O)C3CC3)CC2)cc1-c1cc2cc(NC(=O)c3n[nH]c(C)c3C)cnc2[nH]1 [P-2203, N-(2-(1-(1-(cyclopropanecarbonyl)piperidin-4-yl)-3-methyl-1H-pyrazol-4-yl)-1H-pyrrolo[2,3-b]pyridin-5-yl)-4,5-dimethyl-1H-pyrazole-3-carboxamide]	< 10 µM
Cc1[nH]nc(C(=O)Nc2cnc3[nH]c(-c4ccnc(NC5CC5)c4)cc3c2)c1C [P-2204, N-(2-(2-(cyclopropylamino)pyridin-4-yl)-1H-pyrrolo[2,3-b]pyridin-5-yl)-4,5-dimethyl-1H-pyrazole-3-carboxamide]	< 10 µM
Cc1[nH]nc(C(=O)Nc2cnc3[nH]c(-c4ccnc(NC(=O)C5CC5)c4Cl)cc3c2)c1C [P-2205, N-(2-(3-chloro-2-(cyclopropanecarboxamido)pyridin-4-yl)-1H-pyrrolo[2,3-b]pyridin-5-yl)-4,5-dimethyl-1H-pyrazole-3-carboxamide]	< 10 µM
Cc1[nH]nc(C(=O)Nc2cnc3[nH]c(-c4ccnc(NC(=O)C5CC5)c4)cc3c2)c1C [P-2206, N-(2-(2-(cyclopropanecarboxamido)pyridin-4-yl)-1H-pyrrolo[2,3-b]pyridin-5-yl)-4,5-dimethyl-1H-pyrazole-3-carboxamide]	< 10 µM
Cc1[nH]nc(C(=O)Nc2cnc3[nH]c(-c4ccnc(C5CCN(C(=O)C6CC6)CC5)c4)cc3c2)c1C [P-2207, N-(2-(2-(1-(cyclopropanecarbonyl)piperidin-4-yl)pyridin-4-yl)-1H-pyrrolo[2,3-b]pyridin-5-yl)-4,5-dimethyl-1H-pyrazole-3-carboxamide]	< 10 µM
Cc1[nH]nc(C(=O)Nc2cnc3[nH]c(-c4ccnc(N5CCCC5)c4)cc3c2)c1C [P-2208, 4,5-dimethyl-N-(2-(2-(pyrrolidin-1-yl)pyridin-4-yl)-1H-pyrrolo[2,3-b]pyridin-5-yl)-1H-pyrazole-3-carboxamide]	< 10 µM
Cc1[nH]nc(C(=O)Nc2cnc3[nH]c(-c4ccnc(N5CCCCC5)c4)cc3c2)c1C [P-2209, 4,5-dimethyl-N-(2-(2-(piperidin-1-yl)pyridin-4-yl)-1H-pyrrolo[2,3-b]pyridin-5-yl)-1H-pyrazole-3-carboxamide]	< 10 µM
Cc1[nH]nc(C(=O)Nc2cnc3[nH]c(-c4ccnc(N5CCC(C)CC5)c4)cc3c2)c1C [P-2210, 4,5-dimethyl-N-(2-(2-(4-methylpiperidin-1-yl)pyridin-4-yl)-1H-pyrrolo[2,3-b]pyridin-5-yl)-1H-pyrazole-3-carboxamide]	< 10 µM
Cc1[nH]nc(C(=O)Nc2cnc3[nH]c(-c4ccnc(C5CCNCC5)c4)cc3c2)c1C [P-2211, 4,5-dimethyl-N-(2-(2-(piperidin-4-yl)pyridin-4-yl)-1H-pyrrolo[2,3-b]pyridin-5-yl)-1H-pyrazole-3-carboxamide]	< 10 µM
Cc1[nH]nc(C(=O)Nc2cnc3[nH]c(-c4ccnc(N5CCC(O)CC5)c4)cc3c2)c1C [P-2212, N-(2-(2-(4-hydroxypiperidin-1-yl)pyridin-4-yl)-1H-pyrrolo[2,3-b]pyridin-5-yl)-4,5-dimethyl-1H-pyrazole-3-carboxamide]	< 10 µM
